The source of these data is US5968526A, “T cell epitopes of the major allergens from Dermatophagoides (house dust mite)” (Immulogic Pharamaceutical Corporation, priority 1995, dated 1999).

Format in all cases: cell-based, human
The subject of assay [1] is T cell cultures reactive with Der p I from house dust mite-allergic subjects. Put plainly: secondary T cell proliferation assay, Group I (Der p I) overlapping and candidate/unique peptides; percent of T cell reactivity. As to conditions: patient 1733; highest S.I. ≥2.0 recorded. From the text:
To determine whether a peptide (candidate peptide) or a combination of candidate peptides are likely to comprise a sufficient percentage of the T cell reactivity of house dust mite protein allergens, to induce T cell nonresponsiveness in a substantial percentage of a population of individuals sensitive to house dust mite allergen, an algorithm can be used. In accordance with one such algorithm, a set of overlapping peptides is produced by systematically dividing the protein allergen(s) of interest into al least two overlapping peptide regions of desired lengths (e.g., of about 12-30 amino acid residues in length, preferably not longer than about 25 amino acid residues in length with about 5-15 amino acid residues of overlap). This division into peptide regions can be arbitrary, can be made according to an algorithm, or can be wholly or partially based on regions of house dust mite Group I and/or Group II protein allergens known to comprise at least one T cell epitope. Preferably, at least 50% of the entire house dust mite protein allergen sequence and more preferably, the entire house dust mite protein allergen sequence is divided into two or more peptides. A human T cell stimulation index is determined for each of the peptides in an in vitro T cell proliferation assay as described herein for each individual tested in a population of individuals sensitive to the protein antigen. For example both WO93/08279 and WO94/24281 disclose T cell studies with overlapping peptides derived from Der p I, Der p II, Der f I and Der f II. A candidate peptide or combination of candidate peptides is selected based, at least in part, on the mean human T cell stimulation index of the candidate peptide in the set of peptides tested and the positivity index of the candidate peptide in the set of peptides tested (see, FIGS. 3 and 4). The human T cell stimulation index for the candidate peptide(s) is summed. For each individual, the human T cell stimulation index for the candidate peptide(s) is divided by the sum of the human T cells stimulation indices of the remaining peptides in the set of peptides tested to determine a percent of T cell reactivity as shown below:
Alternatively, the presence of T cell epitopes in the candidate peptide dependent on amino acids residues in an overlapping peptide located at either the N-terminus or C-terminus of the candidate peptide in the amino acid sequence of the protein antigen, but which epitopes are not present in the candidate peptide can be considered in calculating the percent of T cell reactivity in the candidate peptide by use of the following formula: [formula]
In this formula, "NT flanking peptide" refers to a peptide which comprises amino acid residues which overlap with amino acid residues located at the N-terminus of the candidate peptide in the amino acid sequence of the protein antigen from which the peptide is derived; "CT flanking peptide" refers to a peptide which comprises amino acid residues which overlap with amino acid residues located a the C-terminus of the candidate peptide in the amino acid sequence of the protein antigen from which the peptide is derived. In this calculation stimulation indices for the candidate peptide, the N-terminal flanking peptide and the C-terminal flanking peptide are added and divided by the sum total of the stimulation indices for the entire set of overlapping peptides obtain a percent of T cell reactivity for the candidate peptide. If a combination of two or more candidate peptides is selected each of which contains amino acid residues which overlap, this calculation cannot be used to determine a percent of T cell reactivity for each candidate peptide separately. However, a total percent of T cell reactivity for the combination of candidate peptides can be obtained. In this situation, the stimulation indices for all of the candidate peptides which overlap is included in the calculation. […]

The test system of assay [2] is T cell lines primed in vitro to Der p I. Put plainly: secondary proliferation of Der p I-primed T cell lines (Examples V, VII, XI). Particulars: for T cell reactivity: overlapping Der p I peptides. In outline:
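PBMC were primed with native or recombinant Der p I (10 or 20 μg/ml) for 7 days, then expanded with IL-2 and IL-4. Resting T cells (2×10^4) were cultured 3 days with irradiated autologous EBV-B cells or PBMC and titrated protein or peptides, then pulsed 16 h with 1 μCi ³H-thymidine. S.I. was peak-response CPM over medium-only CPM, with S.I. ≥2.0 scored positive.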

Assay [3] concerns T cell lines primed in vitro to Der f I. Briefly: secondary proliferation of Der f I-primed T cell lines (Examples VI, VII, XI). Particulars: Der f I primed; 8 positive experiments; FIG. 8. The method, boiled down: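 PBMC from house dust mite-allergic patients were primed in vitro with recombinant or affinity-purified Der f I at 20 μg/ml (or 10 μg/ml), then rechallenged with Der f I peptides. Antigen-presenting cells were x-irradiated autologous PBMC (3500 Rads) or EBV-transformed B cells (25,000 Rads). Read-out was T cell proliferation.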

Assay [4] concerns T cell lines primed in vitro to Der f II. Briefly: secondary proliferation of Der f II-primed T cell lines (Examples IX, X, XI). Particulars: 10 patients; FIG. 18a. On the procedure: Experiments similar to those of Example V were performed to determine the T cell-reactive areas of the Der f II protein. For example, PBMC from house dust mite-allergic patient 384 were stimulated in vitro with purified recombinant Der f II and the T cell line was then challenged in the presence of x-irradiated (25,000 Rads) autologous Epstein-Barr virus transformed B cells as antigen presenting cells with various overlapping […]. The results of this proliferation assay indicate that T cells from this particular patient respond well to peptides DF II-1, DF II-2, DF II-3.1, DF II-4.5, DF II-15, DF II-16, and DF I-19.1 (data not shown).
The above procedure was followed with 10 patients, except in individual cases, T cell lines were primed by stimulating the patient PBMC with 20 μg/ml or 3 μg/ml purified native Der f II, and were assayed in the presence of x-irradiated (3500 Rads) autologous PBMC as antigen-presentingcells.
A study similar to that described in Example VII was carried out to determine the T cell cross-reactivity of the Der p II and Der f II proteins. T cells primed with the Der f II protein were challenged with various Der f II peptides and a set of substantially matching Der p II peptides. […]

Assay [5] relates to T cell lines primed in vitro with Der p II. Briefly: T cell proliferation with fine map and modified Group II peptides (Example XIV). Particulars: FIGS. 32a-b. On the procedure:
Long term T cell lines were established by stimulation of 2×10^6 PBL/ml in bulk cultures of complete medium (RPMI-1640, 2 mM L-glutamine, 100 U/ml penicillin/streptomycin, 5×10^-5 M 2-mercaptoethanol, and 10 mM HEPES supplemented with 5% heat inactivated human AB serum) with 30 μg/ml of purified native Der p I or Der p II for 5-6 days at 37° C. in a humidified 5% CO2 incubator to select for house dust mite protein allergen reactive T cells. This amount of priming antigen was determined to be optimal for the activation of T cells from house dust mite allergic patients. Viable cells were purified by LSM centrifugation and cultured in complete medium supplemented with 5 units recombinant human IL-2/ml and 5 units recombinant human IL-4/ml for up to three weeks until the cells no longer responded to lymphokines and were considered "rested". The ability of the T cells to proliferate to selected peptides, purified Der p I or Der p II, or positive (PHA) controls or negative controls (medium only) was then assessed. For assay, 2×10^4 rested cells were restimulated in the presence of 2×10^4 autologous Epstein-Barr virus (EBV)-transformed B cells (prepared as described below) (gamma-irradiated with 25,000 RADS) or with 5×10^4 autologous PBMs (gamma-irradiated with 3500 RADS), with 2-50 μg/ml of purified native Der p I or Der p II in a volume of 200 μl complete medium in duplicate or triplicate wells in 96-well round bottom plates for 3 days. Each well then received 1 μCi tritiated thymidine for 16-20 hours. The counts incorporated were collected onto glass fiber filter mats and processed for liquid scintillation counting. […] The titrations were used to optimize the dose of peptides in T cell assays.
The maximum response in a titration of each peptide is expressed as the stimulation index (S.I.). The S.I. is the counts per minute (CPM) incorporated by cells in response to peptide, divided by the CPM incorporated by cells in medium only. […] The positive results were used in calculating mean stimulation indices for each peptide for the individual patient tested.
The above procedure was followed with 18 patients in the studies using peptides derived from Der p I and Der f I (FIGS. 31a-b), and 21 patients in the studies with Der p II peptides (FIGS. 32a-b). Individual patient results were used in calculating the mean S.I. for each peptide if the patient responded to the Der p I or Der p II protein at an S.I. of 2.0 or greater and the patient responded to at least one peptide derived from a house dust mite allergen at an S.I. f 2.0 or greater. A summary of positive experiments from the patients tested is shown in FIGS. 32a and 32b and FIGS. 33a and 33b. The bars represent the positivity index. […] In parenthesis above each bar are the mean stimulation indices for each peptide or protein for the group of patients tested.
Autologous EBV-transformed cell lines were γ-irradiated with 25,000 Rad and used as antigen presenting cells in secondary proliferation assays and secondary bulk stimulations. These EBV-transformed cell lines were made by incubating 5×10^6 PBL with 1 ml of B-59/8 Marmoset cell line (ATCC CRL1612, American Type Culture Collection, Rockville, Md.) conditioned medium in the presence of 1 μg/ml phorbol 12-myristate 13-acetate (PMA) at 37° C. for 60 minutes in 12×75 mm polypropylene round-bottom Falcon snap cap tubes (Becton Dickinson Labware, Lincoln Park, N.J.). These cells were then diluted to 1.25×10^6 cells/ml in RPMI-1640 as described above except supplemented with 10% heat-inactivated fetal bovine serum and cultured in 200 μl aliquots in flat bottom culture plates until visible colonies were detected. They were then transferred to larger wells until the cell lines were established.

Assay [6] concerns PBMC from mite-allergic patient. Put plainly: primary T cell (PBMC) proliferation, mite-allergic patient, tritiated thymidine. As to conditions: medium 1071 ± 30. The method, boiled down:
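Ficoll-purified PBMC (5×10^4/well, triplicate) from one mite-allergic donor cultured 7 days at 37 °C with graded concentrations of purified Der p I, Der p II or their peptides in RPMI-1640 plus 5% human AB serum. 1 μCi ^3H-thymidine added for 16 h; CPM counted, stimulation index = antigen CPM/medium-only CPM.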

With “DP I-9: Der p I peptide (IIQRDNGYQPNYHAVNIVGYSNA)”, the “T cell stimulation index (S.I.)” value in assay [1] amounted to 2.4. Moreover, in assay [2] (33 positive experiments), the T cell reactivity result is reported as “significant regions of T cell reactivity”.
With “DP I-17: Der p I peptide (GDNGYGYFAANIDLMMIEEYPYVVIL)”, in assay [1], the “T cell stimulation index (S.I.)” value is 0.
For the substance “DP I-15: Der p I peptide (RFGISNYCQIYPPNANKIREAL)”, in assay [1], the “T cell stimulation index (S.I.)” value is recorded as 2.8. The “T cell response to Der p I peptides” value in assay [3] is on record as “respond significantly”.
“DP I-22.2: Der p I peptide (VAATESAYLAHRNQSLDLAEQELVD)”: in assay [1], the “T cell stimulation index (S.I.)” value is reported as 3.1. For the same substance, the “T cell response to selected Der p I peptides” value in assay [2] (33 positive experiments, FIG. 13) is recorded as “respond significantly”.
In the case of “DP I-14: Der p I peptide (QSCRRPNAQRFGISNYCQI)”, in assay [1], the “T cell stimulation index (S.I.)” value is given as 2.3. Moreover, the “T cell response to Der p I peptides” value in assay [3] is “respond significantly”.
In the case of “DP II-25: Der p II peptide (TVKVMGDDGVLACAIATHAKIRD)”, the “stimulation index / response to selected Der p II peptides” value in assay [4] was “highest stimulation index”. Also, the “T cell response, Group II peptides” value in assay [5] is recorded as “positive T cell studies”.
In the case of “DP I-12.1: Der p I peptide, native sequence (ELVDCASQHGCHGDTIPRGIE)”, the “T cell stimulation index (S.I.)” value in assay [1] is 2.2. The “difference in mean S.I. or percentage of positive responses, original vs additional (native sequence) peptides” value in assay [2] (DP I-11/12 vs DP I-11.1/12.1) is on record as “no significant difference”.
Turning to “DP I-7.1: Der p I peptide (AQTHSAIAVIIGIKDLDAFRHYDGRT)”, the “T cell stimulation index (S.I.)” value in assay [1] was determined as 2.2. Moreover, the T cell reactivity result in assay [2] (33 positive experiments) is given as “significant regions of T cell reactivity”.
Take “DP I-10: Der p I peptide (QGVDYWIVRNSWDTNWGDNGYGYF)”: in assay [1], the “T cell stimulation index (S.I.)” value is listed as 0. Also, the “CPM ± S.D.” value in assay [6] (10 μg/ml) came out at 1936 ± 50 CPM; in assay [6] (30 μg/ml) it was 3042 ± 89 CPM; in assay [6] (100 μg/ml), 2644 ± 63 CPM. Besides, in assay [2] (33 positive experiments), the T cell reactivity entry is listed as “significant regions of T cell reactivity”.
As for “DP I-16: Der p I peptide (HAVNIVGYSNAQGVDYWIVRNS)”, in assay [1], the “T cell stimulation index (S.I.)” value is listed as 2.0. Besides, the T cell reactivity entry in assay [2] (33 positive experiments) is “significant regions of T cell reactivity”.
The like results for “DP I-6.1: Der p I peptide (YPPNANKIREALAQTHSAIAVIIG)” were, in that order, 2.1 and “significant regions of T cell reactivity”.
